Laboratory results from patent US9302999B2, “Substituted triazoles as herbicides” (E. I. DU PONT DE NEMOURS AND COMPANY, priority 2012, dated 2016).

Columns and labels:
Format in all cases: in vivo
[1] = tested on: barnyardgrass (Echinochloa crus-galli); experiment: Test A pre-/postemergence: barnyardgrass; details: for Barnyardgrass plant response rating: Postemergence; for Plant response rating, Barnyardgrass: Preemergence
How it was run: (§1)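 Visual 0–100 injury ratings (0 no effect, 100 complete control) taken about ten days after treatment, relative to untreated controls. Preemergence treatment was a directed soil spray; postemergence plants were 2–10 cm tall at one- to two-leaf stage. Soil: loam/sand blend.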

[2] = tested on: crabgrass, large (large crabgrass, Digitaria sanguinalis); experiment: Test A pre-/postemergence: crabgrass, large; details: for Crabgrass, Large plant response rating: Postemergence; for Plant response rating, Crabgrass, Large: Preemergence
How it was run: as §1

[3] = tested on: foxtail, giant (giant foxtail, Setaria faberii); experiment: Test A pre-/postemergence: foxtail, giant; details: for Foxtail, Giant plant response rating: Postemergence; for Plant response rating, Foxtail, Giant: Preemergence
How it was run: as §1

[4] = tested on: morningglory (Ipomoea spp.); experiment: Test A pre-/postemergence: morningglory; details: for Morningglory plant response rating: Postemergence; for Plant response rating, Morningglory: Preemergence
How it was run: as §1

[5] = tested on: pigweed (Amaranthus retroflexus); experiment: Test A pre-/postemergence: pigweed; details: for Pigweed plant response rating: Postemergence; for Plant response rating, Pigweed: Preemergence
How it was run: as §1

[6] = tested on: velvetleaf (Abutilon theophrasti); experiment: Test A pre-/postemergence: velvetleaf; details: for Velvetleaf plant response rating: Postemergence; for Plant response rating, Velvetleaf: Preemergence
How it was run: as §1

[7] = tested on: wheat (Triticum aestivum); experiment: Test A pre-/postemergence: wheat; details: for Wheat plant response rating: Postemergence; for Plant response rating, Wheat: Preemergence
How it was run: as §1

corn (Zea mays) = experiment: Test A pre-/postemergence: corn; details: for Corn plant response rating: Postemergence; for Plant response rating, Corn: Preemergence
How it was run: as §1

rice (Oryza sativa) = experiment: Test C flooded paddy test: rice; details: scale 0 to 100 (0 no effect, 100 complete control)
How it was run: (§2)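 2-leaf stage plants; pots flooded 3 cm above soil; compound applied into paddy water, depth maintained. Greenhouse 13–15 d. Visual rating vs controls, 0–100 (0 = no effect, 100 = complete control); dash = no result.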

[8] = tested on: sedge, umbrella (small-flower umbrella sedge, Cyperus difformis); experiment: Test C flooded paddy test: sedge, umbrella; details: scale 0 to 100 (0 no effect, 100 complete control)
How it was run: as §2

[9] = tested on: ducksalad (Heteranthera limosa); experiment: Test C flooded paddy test: ducksalad; details: scale 0 to 100 (0 no effect, 100 complete control)
How it was run: as §2

[10] = tested on: barnyardgrass (Echinochloa crus-galli); experiment: Test C flooded paddy test: barnyardgrass; details: scale 0 to 100 (0 no effect, 100 complete control)
How it was run: as §2

[11] = 125 g ai/ha, 0 to 100 scale, 0 is no effect, 100 is complete control
[12] = 500 g ai/ha, visual rating on 0 to 100 scale (0 no effect, 100 complete control), approximately ten days
[13] = 125 g ai/ha, 0 to 100 scale (0 no effect, 100 complete control)
[14] = 500 g ai/ha, 0 to 100 scale, 0 is no effect, 100 is complete control
[15] = Flood (flooded paddy test), 62 g ai/ha, visual rating after 13 to 15 days
[16] = Flood (flooded paddy test), 125 g ai/ha, visual rating after 13 to 15 days
[17] = Flood (flooded paddy test), 250 g ai/ha, visual rating after 13 to 15 days

Cc1nn(-c2ccccn2)nc1C(=O)c1cccc(C(F)(F)F)c1 [Compound 60]
Barnyardgrass plant response rating [1, 11]: 0 | Barnyardgrass plant response rating [1, 12]: 10 | Plant response rating, Barnyardgrass [1, 13]: 0 | Plant response rating, Barnyardgrass [1, 14]: 0 | Crabgrass, Large plant response rating [2, 11]: 0 | Crabgrass, Large plant response rating [2, 12]: 10 | Plant response rating, Crabgrass, Large [2, 13]: 0 | Plant response rating, Crabgrass, Large [2, 14]: 0 | Foxtail, Giant plant response rating [3, 11]: 0 | Foxtail, Giant plant response rating [3, 12]: 0 | Plant response rating, Foxtail, Giant [3, 13]: 0 | Plant response rating, Foxtail, Giant [3, 14]: 0 | Morningglory plant response rating [4, 11]: 0 | Morningglory plant response rating [4, 12]: 0 | Plant response rating, Morningglory [4, 13]: 0 | Plant response rating, Morningglory [4, 14]: 0 | Pigweed plant response rating [5, 11]: 0 | Pigweed plant response rating [5, 12]: 10 | Plant response rating, Pigweed [5, 13]: 0 | Plant response rating, Pigweed [5, 14]: 0 | Velvetleaf plant response rating [6, 11]: 0 | Velvetleaf plant response rating [6, 12]: 0 | Plant response rating, Velvetleaf [6, 13]: 0 | Plant response rating, Velvetleaf [6, 14]: 0 | Wheat plant response rating [7, 11]: 0 | Wheat plant response rating [7, 12]: 0 | Plant response rating, Wheat [7, 13]: 0 | Plant response rating, Wheat [7, 14]: 0 | Corn plant response rating (corn (Zea mays); [11]): 0 | Corn plant response rating (corn (Zea mays); [12]): 10 | Plant response rating, Corn (corn (Zea mays); [13]): 0 | Plant response rating, Corn (corn (Zea mays); [14]): 0 | Plant response rating, Rice (rice (Oryza sativa); [15]): 0 | Plant response rating, Rice (rice (Oryza sativa); [16]): 0 | Plant response rating, Rice (rice (Oryza sativa); [17]): 0 | Plant response rating, Rice (rice (Oryza sativa); Flood, 31 g ai/ha): 0 | Plant response rating, Sedge, Umbrella [8, 15]: 0 | Plant response rating, Sedge, Umbrella [8, 16]: 0 | Plant response rating, Sedge, Umbrella [8, 17]: 0 | Plant response rating, Sedge, Umbrella ([8]; Flood, 31 g ai/ha): 0 | Plant response rating, Ducksalad [9, 15]: 0 | Plant response rating, Ducksalad [9, 16]: 0 | Plant response rating, Ducksalad [9, 17]: 0 | Plant response rating, Ducksalad ([9]; Flood, 31 g ai/ha): 0 | Plant response rating, Barnyardgrass [10, 15]: 0 | Plant response rating, Barnyardgrass [10, 16]: 0 | Plant response rating, Barnyardgrass [10, 17]: 0 | Plant response rating, Barnyardgrass ([10]; Flood, 31 g ai/ha): 0

Cc1nn(-c2cccc(C(F)(F)F)c2)nc1Oc1cc(C(F)(F)F)nn1C [Compound 64]
Barnyardgrass plant response rating [1, 11]: 0 | Barnyardgrass plant response rating [1, 12]: 0 | Plant response rating, Barnyardgrass [1, 13]: 0 | Plant response rating, Barnyardgrass [1, 14]: 0 | Crabgrass, Large plant response rating [2, 11]: 0 | Crabgrass, Large plant response rating [2, 12]: 0 | Plant response rating, Crabgrass, Large [2, 13]: 0 | Plant response rating, Crabgrass, Large [2, 14]: 0 | Foxtail, Giant plant response rating [3, 11]: 0 | Foxtail, Giant plant response rating [3, 12]: 0 | Plant response rating, Foxtail, Giant [3, 13]: 0 | Plant response rating, Foxtail, Giant [3, 14]: 0 | Morningglory plant response rating [4, 11]: 0 | Morningglory plant response rating [4, 12]: 0 | Plant response rating, Morningglory [4, 13]: 0 | Plant response rating, Morningglory [4, 14]: 0 | Pigweed plant response rating [5, 11]: 0 | Pigweed plant response rating [5, 12]: 0 | Plant response rating, Pigweed [5, 13]: 0 | Plant response rating, Pigweed [5, 14]: 0 | Velvetleaf plant response rating [6, 11]: 0 | Velvetleaf plant response rating [6, 12]: 0 | Plant response rating, Velvetleaf [6, 13]: 0 | Plant response rating, Velvetleaf [6, 14]: 0 | Wheat plant response rating [7, 11]: 0 | Wheat plant response rating [7, 12]: 0 | Plant response rating, Wheat [7, 13]: 0 | Plant response rating, Wheat [7, 14]: 0 | Corn plant response rating (corn (Zea mays); [11]): 0 | Corn plant response rating (corn (Zea mays); [12]): 0 | Plant response rating, Corn (corn (Zea mays); [13]): 0 | Plant response rating, Corn (corn (Zea mays); [14]): 0 | Plant response rating, Rice (rice (Oryza sativa); [15]): 0 | Plant response rating, Rice (rice (Oryza sativa); [16]): 0 | Plant response rating, Rice (rice (Oryza sativa); [17]): 0 | Plant response rating, Rice (rice (Oryza sativa); Flood, 31 g ai/ha): 0 | Plant response rating, Sedge, Umbrella [8, 15]: 0 | Plant response rating, Sedge, Umbrella [8, 16]: 0 | Plant response rating, Sedge, Umbrella [8, 17]: 0 | Plant response rating, Sedge, Umbrella ([8]; Flood, 31 g ai/ha): 0 | Plant response rating, Ducksalad [9, 15]: 0 | Plant response rating, Ducksalad [9, 16]: 0 | Plant response rating, Ducksalad [9, 17]: 0 | Plant response rating, Ducksalad ([9]; Flood, 31 g ai/ha): 0 | Plant response rating, Barnyardgrass [10, 15]: 0 | Plant response rating, Barnyardgrass [10, 16]: 0 | Plant response rating, Barnyardgrass [10, 17]: 0 | Plant response rating, Barnyardgrass ([10]; Flood, 31 g ai/ha): 0

Cc1nn(-c2ccc(C(F)F)cn2)nc1C(=O)c1cccc(C(F)(F)F)c1 [Compound 68]
Barnyardgrass plant response rating [1, 11]: 0 | Barnyardgrass plant response rating [1, 12]: 10 | Plant response rating, Barnyardgrass [1, 13]: 0 | Plant response rating, Barnyardgrass [1, 14]: 0 | Crabgrass, Large plant response rating [2, 11]: 10 | Crabgrass, Large plant response rating [2, 12]: 10 | Plant response rating, Crabgrass, Large [2, 13]: 0 | Plant response rating, Crabgrass, Large [2, 14]: 0 | Foxtail, Giant plant response rating [3, 11]: 10 | Foxtail, Giant plant response rating [3, 12]: 10 | Plant response rating, Foxtail, Giant [3, 13]: 0 | Plant response rating, Foxtail, Giant [3, 14]: 0 | Morningglory plant response rating [4, 11]: 0 | Morningglory plant response rating [4, 12]: 10 | Plant response rating, Morningglory [4, 13]: 0 | Plant response rating, Morningglory [4, 14]: 0 | Pigweed plant response rating [5, 11]: 10 | Pigweed plant response rating [5, 12]: 50 | Plant response rating, Pigweed [5, 13]: 0 | Plant response rating, Pigweed [5, 14]: 0 | Velvetleaf plant response rating [6, 12]: 0 | Plant response rating, Velvetleaf [6, 13]: 0 | Plant response rating, Velvetleaf [6, 14]: 0 | Wheat plant response rating [7, 11]: 0 | Wheat plant response rating [7, 12]: 10 | Plant response rating, Wheat [7, 13]: 0 | Plant response rating, Wheat [7, 14]: 0 | Corn plant response rating (corn (Zea mays); [11]): 0 | Corn plant response rating (corn (Zea mays); [12]): 10 | Plant response rating, Corn (corn (Zea mays); [13]): 0 | Plant response rating, Corn (corn (Zea mays); [14]): 0 | Plant response rating, Rice (rice (Oryza sativa); [15]): 0 | Plant response rating, Rice (rice (Oryza sativa); [16]): 0 | Plant response rating, Rice (rice (Oryza sativa); [17]): 0 | Plant response rating, Rice (rice (Oryza sativa); Flood, 31 g ai/ha): 0 | Plant response rating, Sedge, Umbrella [8, 15]: 0 | Plant response rating, Sedge, Umbrella [8, 16]: 0 | Plant response rating, Sedge, Umbrella [8, 17]: 0 | Plant response rating, Sedge, Umbrella ([8]; Flood, 31 g ai/ha): 0 | Plant response rating, Ducksalad [9, 15]: 0 | Plant response rating, Ducksalad [9, 16]: 0 | Plant response rating, Ducksalad [9, 17]: 0 | Plant response rating, Ducksalad ([9]; Flood, 31 g ai/ha): 0 | Plant response rating, Barnyardgrass [10, 15]: 0 | Plant response rating, Barnyardgrass [10, 16]: 0 | Plant response rating, Barnyardgrass [10, 17]: 0 | Plant response rating, Barnyardgrass ([10]; Flood, 31 g ai/ha): 0

Cc1nn(-c2ccc(Cl)nc2)nc1C(=O)c1cccc(C(F)(F)F)c1 [Compound 72]
Barnyardgrass plant response rating [1, 11]: 0 | Barnyardgrass plant response rating [1, 12]: 10 | Plant response rating, Barnyardgrass [1, 13]: 0 | Plant response rating, Barnyardgrass [1, 14]: 0 | Crabgrass, Large plant response rating [2, 11]: 0 | Crabgrass, Large plant response rating [2, 12]: 10 | Plant response rating, Crabgrass, Large [2, 13]: 0 | Plant response rating, Crabgrass, Large [2, 14]: 10 | Foxtail, Giant plant response rating [3, 11]: 0 | Foxtail, Giant plant response rating [3, 12]: 10 | Plant response rating, Foxtail, Giant [3, 13]: 0 | Plant response rating, Foxtail, Giant [3, 14]: 20 | Morningglory plant response rating [4, 11]: 0 | Morningglory plant response rating [4, 12]: 10 | Plant response rating, Morningglory [4, 13]: 0 | Plant response rating, Morningglory [4, 14]: 0 | Pigweed plant response rating [5, 11]: 10 | Pigweed plant response rating [5, 12]: 70 | Plant response rating, Pigweed [5, 13]: 0 | Plant response rating, Pigweed [5, 14]: 10 | Velvetleaf plant response rating [6, 11]: 0 | Velvetleaf plant response rating [6, 12]: 10 | Plant response rating, Velvetleaf [6, 13]: 0 | Plant response rating, Velvetleaf [6, 14]: 0 | Wheat plant response rating [7, 11]: 0 | Wheat plant response rating [7, 12]: 0 | Plant response rating, Wheat [7, 13]: 0 | Plant response rating, Wheat [7, 14]: 0 | Corn plant response rating (corn (Zea mays); [11]): 0 | Corn plant response rating (corn (Zea mays); [12]): 10 | Plant response rating, Corn (corn (Zea mays); [13]): 0 | Plant response rating, Corn (corn (Zea mays); [14]): 0 | Plant response rating, Rice (rice (Oryza sativa); [15]): 0 | Plant response rating, Rice (rice (Oryza sativa); [16]): 0 | Plant response rating, Rice (rice (Oryza sativa); [17]): 0 | Plant response rating, Rice (rice (Oryza sativa); Flood, 31 g ai/ha): 0 | Plant response rating, Sedge, Umbrella [8, 15]: 0 | Plant response rating, Sedge, Umbrella [8, 16]: 0 | Plant response rating, Sedge, Umbrella [8, 17]: 0 | Plant response rating, Sedge, Umbrella ([8]; Flood, 31 g ai/ha): 0 | Plant response rating, Ducksalad [9, 15]: 0 | Plant response rating, Ducksalad [9, 16]: 0 | Plant response rating, Ducksalad [9, 17]: 0 | Plant response rating, Ducksalad ([9]; Flood, 31 g ai/ha): 0 | Plant response rating, Barnyardgrass [10, 15]: 0 | Plant response rating, Barnyardgrass [10, 16]: 0 | Plant response rating, Barnyardgrass [10, 17]: 0 | Plant response rating, Barnyardgrass ([10]; Flood, 31 g ai/ha): 0
